From paper PMC3086427 (Clinical cancer research : an official journal of the …, 2008)
Read-outs that look alike come from different tables or passages of the source.

What was measured:
clinical = conditions: human, in vivo, po; for half-life: T1/2
[1] = in vivo
[2] = Plasma pharmacokinetics of EKB-569 and its N-desmethyl metabolite at the MTD
[3] = cited from earlier work
colorectal cancer = conditions: 5-FU chemotherapy regimens, advanced-stage CRC; cited from earlier work
phosphorylated EGFR = conditions: 25 mg EKB-569 with full-dose Irinotecan and infusional 5-FU; cited from earlier work
[4] = p.o., continuous schedule, cited from earlier work

With `CCCCCOC(=O)Nc1nc(=O)n([C@@H]2O[C@H](C)[C@@H](O)[C@H]2O)cc1F` [capecitabine, reference compound] the “dose reductions of the agent secondary to diarrhea” value (human, in vivo) was 60%, the “MTD of capecitabine combined with EKB-569” value (twice daily for 14 days of a 21-day cycle, with EKB-569 50 mg daily) was 1,000 mg/m^2 and the half-life (clinical) was 0.52 ± 0.17 h. The Tmax (clinical) was 1 h, the mean terminal half-life ([1]; human) was “half an hour” and the “time at which Cmax was observed after p.o. administration” value ([1]; human, po) was 1 h. For the same molecule, the “difference of pharmacokinetic variables, monotherapy vs combination therapy” value [1] was “no statistically significant difference”.
For `CCOc1cc2ncc(C#N)c(Nc3ccc(F)c(Cl)c3)c2cc1NC(=O)/C=C/CNC` [N-desmethyl EKB-569], the AUC ([2]; human, in vivo, po) was 64.4 ± 43.3 ng·h/mL, the Cmax ([2]; human, in vivo, po) was 4.2 ± 3.2 ng/mL and the T1/2 ([2]; human, in vivo, po) was 24.1 ± 9.2 h. For the same molecule, the Tmax ([2]; human, in vivo, po) was 3.5 (2–6) h.
In the case of `O=c1[nH]cc(F)c(=O)[nH]1` [5-FU, 5-fluorouracil], the “increase in 5-FU exposure with continual administration of capecitabine” value ([3]; alone or with other anticancer agents, from no increase upward) is listed as at most 83%, the “interpatient variability of 5-FU AUC” value ([3]; continued daily dosing of capecitabine, day 14) is listed as 85% and the “AUC of 5-FU on day 14 higher than after a single dose” value ([3]; continued daily dosing of capecitabine) is listed as 34%. The objective response rate (colorectal cancer) was ~ 20%, the “increase in AUC[0-t] in combination with EKB-569 versus capecitabine alone” value ([1]; human) was 88% and the “increase in AUC[0-∞] in combination with EKB-569 versus capecitabine alone” value ([1]; human) was 81%. For the same molecule, the T1/2 ([1]; human, po) was 0.73 ± 0.17 h and the Tmax ([1]; human, po) was 2.00 (0.50–4.00) h.
For `CCOc1cc2ncc(C#N)c(Nc3ccc(F)c(Cl)c3)c2cc1NC(=O)/C=C/CN(C)C` [EKB-569], the “patients who required a dose reduction of the agent at the MTD” value (EKB-569 50 mg daily and capecitabine 1,000 mg/m^2 twice daily) is given as “four”, the “MTD of EKB-569 combined with capecitabine” value (daily, p.o., 21-day cycle, with capecitabine 1,000 mg/m^2 twice daily) is given as 50 mg and the “inhibition of phosphorylated EGFR and downstream signaling pathways in skin and tumor samples” value (phosphorylated EGFR) is given as “complete inhibition”. The “Cl/F (oral clearance)” value ([2]; day 8, 50 mg EKB-569 p.o. daily with 1,000 mg/m^2 capecitabine, mean ± SD) was 57 ± 24 L/h, the “coefficient of variation values for Cmax and AUC (intersubject variability)” value ([2]; day 8, MTD) was under 40% and the half-life ([2]; human, plasma, po) was 16.6 ± 3.7 h. The “well-tolerated dose, single agent” value ([4]; patients with advanced solid tumors) was “up to 75 mg per day” and the “principal toxicities, single agent” value [4] was “diarrhea and skin rash”.
With `C[C@H]1O[C@@H](n2cc(F)c(=O)[nH]c2=O)[C@H](O)[C@@H]1O` [5′-DFUR, 5′-deoxy-5-fluorouridine] the half-life (clinical) was 0.72 ± 0.14 h, the Tmax (clinical) was 2 h and the “increase in AUC[0-t] in combination with EKB-569 versus capecitabine alone” value ([1]; human) was 28%. The “increase in AUC[0-∞] in combination with EKB-569 versus capecitabine alone” value ([1]; human) was 31%.
